Data from US10272095B2 (GlaxoSmithKline Intellectual Property Development Limited, priority 2015, dated 2019).
Where a name gives a salt, the structure may show the parent alone. Read-outs that look alike come from different tables or passages of the source.

Test system: NQO1 specific enzyme activity in BEAS-2B cells
Test: BEAS-2B NQO1 MTT assay
Type: cell-based
Settings: NQO1 specific enzyme activity induction in BEAS-2B cells, 48 hours, read-out: EC50
Description: NAD(P)H:quinone oxidoreductase 1 (NQO1), also called DT diaphorase, is a homodimeric FAD-containing enzyme that catalyzes obligatory NAD(P)H-dependent two-electron reductions of quinones and protects cells against the toxic and neoplastic effects of free radicals and reactive oxygen species arising from one-electron reductions. The transcription of NQO1 is finely regulated by NRF2, and thus NQO1 activity is a good marker for NRF2 activation. On day one, frozen BEAS-2B cells (ATCC) are thawed in a water bath, counted, and re-suspended at a concentration of 250,000 cells/mL. Fifty microliters of cells are plated in 384 well black clear-bottomed plates. Plates are incubated at 37° C., 5% CO2 overnight. On day two, plates are centrifuged and 50 nL of compound or controls are added to the cells. Plates are then incubated at 37° C., 5% CO2 for 48 hours. On day four, medium is aspirated from the plate and crude cell lysates are made by adding 13 uL of 1× Cell Signaling Technologies lysis buffer with 1 Complete, Mini, EDTA-free Protease Inhibitor Tablet (Roche) for each 10 mL of lysis buffer. After lysis plates are incubated for 20 minutes at room temperature. Two microliters of lysate are removed for use in Cell Titer Glo assay (Promega) and MTT cocktail is prepared (Prochaska et. al. 1998) for measurement of NQO1 activity. Fifty microliters of MTT cocktail is added to each well, plate is centrifuged, and analyzed on an Envision plate reader (Perkin Elmer) using Absorbance 570 nm label for 30 minutes. Product formation is measured kinetically and the pEC50 of NQO1 specific activity induction is calculated by plotting the change in absorbance (Delta OD/min) versus the log of compound concentration followed by 3-parameter fitting.
EC50s<1 nM (+++++), EC50s 10 nM-1 nM (++++), EC50s 10-100 nM (+++), EC50s 100 nM-1 uM (++), EC50s 1 uM-10 uM (+), EC50s>10 uM (−), or were not determined (ND).

Row | Compound | EC50 (Homo sapiens, BEAS-2B, 48 h) [µM] | EC50 [µM]
1 | Cc1c(C(CC(=O)O)c2ccc3c(c2)C2C(CCN2C(=O)OC(C)(C)C)C3)ccc2c1nnn2C (stereo not shown) [Example 6, 3-{1-[(tert-Butoxy)carbonyl]-1H,2H,3H,3aH,4H,8bH-indeno[1,2-b]pyrrol-7-yl}-3-(1,4-dimethyl-1H-1,2,3-benzotriazol-5-yl)propanoic Acid] | 0.1 to 1 | 
2 | Cc1c(C(CC(=O)O)c2ccc3c(c2)[C@@H]2[C@@H](CC(=O)N2CC2CCCCC2)C3)ccc2c1nnn2C (stereo partly drawn) [Example 1, 3-[(3aR,8bS)-1-(cyclohexylmethyl)-2-oxo-1H,2H,3H,3aH,4H,8bH-indeno[1,2-b]pyrrol-7-yl]-3-(1,4-dimethyl-1H-1,2,3-benzotriazol-5-yl)propanoic Acid] | 0.1 to 1 | 
3 | Cc1c(C(CC(=O)O)c2ccc3c(c2)C(N2Cc4ccccc4O[C@H](C)C2)CC3)ccc2c1nnn2C (stereo partly drawn) [Example 53, 3-(1,4-Dimethyl-1H-benzo[d][1,2,3]triazol-5-yl)-3-(3-((R)-2-methyl-2,3-dihydrobenzo[f][1,4]oxazepin-4(5H)-yl)-2,3-dihydro-1H-inden-5-yl)propanoic Acid] | 0.1 to 1 | 
4 | Cc1c(C(CC(=O)O)c2ccc3c(c2)C(N2Cc4ccccc4O[C@H](C)C2)CCC3)ccc2c1nnn2C (stereo partly drawn) [Example 66, 3-(1,4-Dimethyl-1H-benzo[d][1,2,3]triazol-5-yl)-3-(8-((R)-2-methyl-2,3-dihydrobenzo[f][1,4]oxazepin-4(5H)-yl)-5,6,7,8-tetrahydronaphthalen-2-yl)propanoic Acid] | 0.1 to 1 | 
5 | Cc1cc(C#N)ccc1C(CC(=O)O)c1ccc2c(c1)C(N1Cc3cccnc3OC(C)(C)C1)CC2 (stereo not shown) [Example 59, 3-(4-Cyano-2-methylphenyl)-3-(3-(2,2-dimethyl-2,3-dihydropyrido[3,2-f][1,4]oxazepin-4(5H)-yl)-2,3-dihydro-1H-inden-5-yl)propanoic Acid, Formic Acid Salt] | 0.1 to 1 | 
6 | Cc1cc(F)ccc1C(c1ccc2c(c1)C(N1Cc3ccccc3OC(C)(C)C1)CC2)C(C)(C)C(=O)O (stereo not shown) [Example 26, 3-(3-(2,2-Dimethyl-2,3-dihydrobenzo[f][1,4]oxazepin-4(5H)-yl)-2,3-dihydro-1H-inden-5-yl)-3-(4-fluoro-2-methylphenyl)-2,2-dimethylpropanoic Acid] | 0.01 to 0.1 | 
7 | Cc1c(C(c2ccc3c(c2)C(N2Cc4cnccc4OC(C)(C)C2)CC3)C(C)(C)C(=O)O)ccc2c1nnn2C (stereo not shown) [Example 33, 3-(1,4-Dimethyl-1H-benzo[d][1,2,3]triazol-5-yl)-3-(3-(2,2-dimethyl-2,3-dihydropyrido[3,4-f][1,4]oxazepin-4(5H)-yl)-2,3-dihydro-1H-inden-5-yl)-2,2-dimethylpropanoic Acid, Trifluoroacetic Acid Salt] | 0.001 to 0.01 | 
8 | Cc1c(C(CC(=O)O)c2ccc3c(c2)C(N2Cc4ccc(F)cc4OC(C)(C)C2)CC3)ccc2c1nnn2C (stereo not shown) [Example 25, 3-(1,4-Dimethyl-1H-benzo[d][1,2,3]triazol-5-yl)-3-(3-(8-fluoro-2,2-dimethyl-2,3-dihydrobenzo[f][1,4]oxazepin-4(5H)-yl)-2,3-dihydro-1H-inden-5-yl)propanoic Acid] | 0.001 to 0.01 | 
9 | Cc1c(C(c2ccc3c(c2)C(N2Cc4ccccc4O[C@H](C)C2)CC3)C(C)(C)C(=O)O)ccc2c1nnn2C (stereo partly drawn) [Example 32, 3-(1,4-Dimethyl-1H-benzo[d][1,2,3]triazol-5-yl)-2,2-dimethyl-3-(3-((R)-2-methyl-2,3-dihydrobenzo[f][1,4]oxazepin-4(5H)-yl)-2,3-dihydro-1H-inden-5-yl)propanoic Acid, Formic Acid Salt] | 0.001 to 0.01 | 
10 | CCCC(C)C(=O)N1CCC2Cc3ccc(C(CC(=O)O)c4ccc5c(nnn5C)c4C)cc3C21 (stereo not shown) [Example 10, 3-(1,4-Dimethyl-1H-1,2,3-benzotriazol-5-yl)-3-[1-(2-methylpentanoyl)-1H,2H,3H,3aH,4H,8bH-indeno[1,2-b]pyrrol-7-yl]propanoic Acid] | 1 to 10 | 
11 | CC[C@@H]1CN([C@H]2CCc3ccc([C@@H](c4ccc5c(nnn5C)c4C)C(C)(C)C(=O)O)cc32)Cc2cnccc2O1 (relative stereo) [Example 85, rel-(S)-3-(1,4-Dimethyl-1H-benzo[d][1,2,3]triazol-5-yl)-3-(rel-(S)-3-((R)-2-ethyl-2,3-dihydropyrido[3,4-f][1,4]oxazepin-4(5H)-yl)-2,3-dihydro-1H-inden-5-yl)-2,2-dimethylpropanoic Acid] |  | 0.01 to 0.1
12 | CCn1cc(CCC(CC(=O)O)c2ccc3c(c2)C2C(CCN2C(=O)OC(C)(C)C)C3)nn1 (stereo not shown) [Example 17, 3-(1-(tert-Butoxycarbonyl)-1,2,3,3a,4,8b-hexahydroindeno[1,2-b]pyrrol-7-yl)-5-(1-ethyl-1H-1,2,3-triazol-4-yl)pentanoic Acid] | 1 to 10 | 
13 | CCn1nnc(CCC(c2ccc3c(c2)C(N2Cc4ccccc4OC(C)(C)C2)CC3)C(C)(C)C(=O)O)n1 (stereo not shown) [Example 64, 3-(3-(2,2-dimethyl-2,3-dihydrobenzo[f][1,4]oxazepin-4(5H)-yl)-2,3-dihydro-1H-inden-5-yl)-5-(2-ethyl-2H-tetrazol-5-yl)-2,2-dimethylpentanoic Acid, Trifluoroacetic Acid Salt] | 0.01 to 0.1 | 
14 | Cc1c([C@H](c2ccc3c(c2)[C@H](N2Cc4cnccc4OC(C)(C)C2)CC3)C(C)(C)C(=O)O)ccc2c1nnn2C [Example 86, 3-(1,4-Dimethyl-1H-benzo[d][1,2,3]triazol-5-yl)-3-(3-(2,2-dimethyl-2,3-dihydropyrido[3,4-f][1,4]oxazepin-4(5H)-yl)-2,3-dihydro-1H-inden-5-yl)-2,2-dimethylpropanoic Acid] | < 0.001 | 
15 | COc1cc(C(CC(=O)O)c2ccc3c(c2)C(N2Cc4ccccc4OC(C)(C)C2)CC3)c(C)c2nnn(C)c12 (stereo not shown) [Example 29, 3-(3-(2,2-Dimethyl-2,3-dihydrobenzo[f][1,4]oxazepin-4(5H)-yl)-2,3-dihydro-1H-inden-5-yl)-3-(7-methoxy-1,4-dimethyl-1H-benzo[d][1,2,3]triazol-5-yl)propanoic Acid, Formic Acid Salt] | < 0.001 | 
16 | Cc1c(C(CC(=O)O)c2ccc3c(c2)C(N2Cc4cc(C#N)ccc4OC(C)(C)C2)CC3)ccc2c1nnn2C (stereo not shown) [Example 28, 3-(3-(7-Cyano-2,2-dimethyl-2,3-dihydrobenzo[f][1,4]oxazepin-4(5H)-yl)-2,3-dihydro-1H-inden-5-yl)-3-(1,4-dimethyl-1H-benzo[d][1,2,3]triazol-5-yl)propanoic Acid, Formic Acid Salt] | < 0.001 | 
17 | Cc1c(C(CC(=O)O)c2ccc3c(c2)C2C(CC3)CC(=O)N2CC2CCCCC2)ccc2c1nnn2C (stereo not shown) [Example 19, 3-(1-(Cyclohexylmethyl)-2-oxo-2,3,3a,4,5,9b-hexahydro-1H-benzo[g]indol-8-yl)-3-(1,4-dimethyl-1H-benzo[d][1,2,3]triazol-5-yl)propanoic Acid] | 0.1 to 1 | 
18 | CCCC1CCC(CN2C(=O)CC3Cc4ccc(C(CC(=O)O)c5ccc6c(nnn6C)c5C)cc4C32)CC1 (stereo not shown) [Example 5, 3-(1,4-Dimethyl-1H-1,2,3-benzotriazol-5-yl)-3-{2-oxo-1-[(4-propylcyclohexyl)methyl]-1H,2H,3H,3aH,4H,8bH-indeno[1,2-b]pyrrol-7-yl}propanoic Acid] | 0.001 to 0.01 | 
19 | Cc1ccc2c(c1)CN(C1CCc3ccc(C(CC(=O)O)c4ccc5c(nnn5C)c4C)cc31)CC(C)(C)O2 (stereo not shown) [Example 22, 3-(1,4-Dimethyl-1H-benzo[d][1,2,3]triazol-5-yl)-3-(3-(2,2,7-trimethyl-2,3-dihydrobenzo[f][1,4]oxazepin-4(5H)-yl)-2,3-dihydro-1H-inden-5-yl)propanoic Acid] | 0.001 to 0.01 | 
20 | CCn1cc(CCC(CC(=O)O)c2ccc3c(c2)[C@@H]2[C@@H](CC(=O)N2CC2CCCCC2)C3)nn1 (stereo partly drawn) [Example 3, 3-[(3aR,8bS)-1-(cyclohexylmethyl)-2-oxo-1H,2H,3H,3aH,4H,8bH-indeno[1,2-b]pyrrol-7-yl]-5-(1-ethyl-1H-1,2,3-triazol-4-yl)pentanoic Acid] | 1 to 10 | 
21 | Cc1c(C(CC(=O)O)c2ccc3c(c2)C(N2Cc4cc(Cl)ccc4OC(C)(C)C2)CC3)ccc2c1nnn2C (stereo not shown) [Example 21, 3-(3-(7-Chloro-2,2-dimethyl-2,3-dihydrobenzo[f][1,4]oxazepin-4(5H)-yl)-2,3-dihydro-1H-inden-5-yl)-3-(1,4-dimethyl-1H-benzo[d][1,2,3]triazol-5-yl)propanoic Acid, Formic Acid Salt] | 0.001 to 0.01 | 
22 | Cc1c(C(CC(=O)O)c2ccc3c(c2)C(N2Cc4ccccc4OC(C)(C)C2)CC3)ccc2c1nnn2C (stereo not shown) [Example 40, 3-(1,4-Dimethyl-1H-benzo[d][1,2,3]triazol-5-yl)-3-(3-(2,2-dimethyl-2,3-dihydrobenzo[f][1,4]oxazepin-4(5H)-yl)-2,3-dihydro-1H-inden-5-yl)propanoic Acid, Formic Acid Salt] | 0.001 to 0.01 | 
